According to ChEMBL document CHEMBL1914359, “Bendigoles D-F, bioactive sterols from the marine sponge-derived Actinomadura sp. SBMs009” (Bioorg Med Chem, 2011):
Calls of active or inactive are those of the source. No cut-off for these calls is given here.

Columns and labels:
Assay type in all cases: cell-based
[1] = target: T1, Glucocorticoid receptor (Homo sapiens) (UniProt P04150); experiment: Inhibition of EGFP-tagged GR nuclear translocation in human U2OS cells at 2.5 uM after 1 hr using Hoechst staining by fluorescence microscopy relative to control
T1 sequence (whole entry): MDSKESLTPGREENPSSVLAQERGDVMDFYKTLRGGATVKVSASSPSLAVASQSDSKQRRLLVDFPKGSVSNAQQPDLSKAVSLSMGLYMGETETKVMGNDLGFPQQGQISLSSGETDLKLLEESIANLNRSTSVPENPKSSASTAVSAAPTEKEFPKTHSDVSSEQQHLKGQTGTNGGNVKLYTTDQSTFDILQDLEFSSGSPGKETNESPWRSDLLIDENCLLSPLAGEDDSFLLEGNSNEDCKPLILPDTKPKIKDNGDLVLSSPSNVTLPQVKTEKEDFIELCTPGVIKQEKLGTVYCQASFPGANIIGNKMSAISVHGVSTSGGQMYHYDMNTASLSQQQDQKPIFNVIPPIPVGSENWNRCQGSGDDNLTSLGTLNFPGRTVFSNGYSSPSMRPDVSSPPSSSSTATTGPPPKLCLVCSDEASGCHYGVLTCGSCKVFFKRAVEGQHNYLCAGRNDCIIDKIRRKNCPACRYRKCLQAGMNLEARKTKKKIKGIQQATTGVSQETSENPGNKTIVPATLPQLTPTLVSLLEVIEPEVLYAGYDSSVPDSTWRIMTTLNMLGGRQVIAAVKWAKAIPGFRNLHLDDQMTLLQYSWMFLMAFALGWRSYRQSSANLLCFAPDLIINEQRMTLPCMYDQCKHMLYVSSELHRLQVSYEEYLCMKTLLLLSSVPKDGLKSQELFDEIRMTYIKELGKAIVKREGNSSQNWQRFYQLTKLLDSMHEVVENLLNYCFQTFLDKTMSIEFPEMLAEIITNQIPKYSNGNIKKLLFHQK

[2] = target: T1, Glucocorticoid receptor (Homo sapiens); experiment: Inhibition of EGFP-tagged GR nuclear translocation in human U2OS cells at 250 uM after 1 hr using Hoechst staining by fluorescence microscopy relative to control
[3] = target: T1, Glucocorticoid receptor (Homo sapiens); experiment: Inhibition of EGFP-tagged GR nuclear translocation in human SH-SY5Y cells at 2.5 uM after 1 hr using Hoechst staining by fluorescence microscopy relative to control
[4] = target: T1, Glucocorticoid receptor (Homo sapiens); experiment: Inhibition of EGFP-tagged GR nuclear translocation in human SH-SY5Y cells at 250 uM after 1 hr using Hoechst staining by fluorescence microscopy relative to control
[5] = target: T1, Glucocorticoid receptor (Homo sapiens); experiment: Inhibition of EGFP-tagged GR nuclear translocation in human HaCaT cells at 2.5 uM after 1 hr using Hoechst staining by fluorescence microscopy relative to control
[6] = target: T1, Glucocorticoid receptor (Homo sapiens); experiment: Inhibition of EGFP-tagged GR nuclear translocation in human HaCaT cells at 250 uM after 1 hr using Hoechst staining by fluorescence microscopy relative to control
[7] = tested on: L929; experiment: Cytotoxicity against mouse L929 cells after 5 days by MTT assay; conditions: for Activity: mouse, l929, 120 h
[8] = Inhibition of IL1-beta-induced GFP-tagged NFkappaB nuclear translocation in CHO cells pretreated for 4 hrs before IL1-beta challenge using Hoechst staining by fluorescence microscopy relative to control; conditions: Cricetulus griseus

inhibition [1] | inhibition [2] | inhibition [3] | inhibition [4] | inhibition [5] | inhibition [6] | IC50 [8] | Compound | Activity [7] | IC50 ([7]; Mus musculus, L929, 120 h)
Active | Active | Active | Active | Active | Active |  | CC(=O)[C@@H](C)[C@H]1CC[C@H]2[C@@H]3[C@H](O)CC4=CC(=O)C=C[C@]4(C)[C@H]3C[C@H](O)[C@]12C (relative stereo) | Non-toxic | 
Active | Active | Active | Active | Active | Active | 71 µM | C[C@H](CCC(=O)O)[C@H]1CC[C@H]2[C@@H]3[C@H](O)CC4=CC(=O)C=C[C@]4(C)[C@H]3C[C@H](O)[C@]12C (relative stereo) | Non-toxic | 
Active | Active | Active | Active | Active | Active |  | C[C@H](C(=O)O)[C@H]1CC[C@H]2[C@@H]3[C@H](O)CC4=CC(=O)C=C[C@]4(C)[C@H]3C[C@H](O)[C@]12C (relative stereo) |  | 30 µM
